Results taken from patent US20220370502A1, “Active Ingredient of an Erythrocytes-containing Composition” (priority 2020, published 2022).

Assays:
Format in all cases: cell-based
human erythrocytes [1] = experiment: Erythrocyte volume by forward scatter (cell shrinkage); details: single treatment with increasing concentrations of costunolide, 24 h, FIG. 2
Procedure: (§1) Single treatment: Erythrocytes were treated with costunolide or chelerythrine for 24 hours (see FIGS. 2, 4, 5 and 6). Double treatments: Erythrocytes were first pre-treated with chelerythrine for two hours, followed by treatment with costunolide for further 24 hours (see FIGS. 3 and 7). Thus, the incubation time for chelerythrine-treated erythrocytes lasted 26 h and 24 h for costunolide-treated erythrocytes. In single (0.2% v/v DMSO) and double treatments (0.4% v/v DMSO), DMSO-treated cells served as negative controls. […]
(§2) At the end of the incubation period, 0.1 ml erythrocytes (3×10^6) were added in 500 μl annexin wash buffer, mixed thoroughly and pelleted by centrifuging. […] After an incubation period of 20 minutes in the dark at room temperature, 200 μl annexin binding buffer was added to each sample, thoroughly vortexed to obtain single cell suspensions, and analyzed by flow cytometry on a FACS Calibur (Becton Dickinson, Heidelberg, Germany). In the FL1-channel, binding of annexin-V-FLUOS (eryptosis) was measured. Erythrocyte volume was determined by forward scatter (FSC). To this end, corresponding erythrocytes suspensions were immediately analysed by flow cytometry.

human erythrocytes [2] = experiment: Intracellular GSH and GSSG analysis; details: costunolide 1-80 μM, 24 h, FIG. 5
Procedure: For single (FIG. 5) or double treatments (FIG. 7), pure RBCs (0.6% Hct) were suspended in 30 ml Ringer solution and treated with varying concentrations of costunolide (1-80 μM) or different concentrations of chelerythrine (1-10 μM) and a fixed costunolide concentration (80 μM). DMSO-treated RBCs served as negative control. After incubation, 58 μl from a 310 mM NEM stock was given to each condition, gently mixed for 1 min and then centrifuged 10 min long at 10 C and 228×g. Supernatants were removed and the cell pellets were stored at −20° C. until analyses. GSH and GSSG were measured on the clear supernatant obtained by treatment of 0.1 ml RBCs with 0.12 ml 15% (w/v) trichloroacetic acid. […] GSSG was measured at the spectrophotometer by the GSH recycling method with slight modifications (Giustarini D. et al. 2013; Nat. Protoc. 8: 1660-1669, “Analysis of GSH and GSSG after derivatization with N-ethylmaleimide”). One aliquot of RBCs ([…]) was hemolyzed by a 1:200 dilution with H2O for haemoglobin determination (Di lorio E.E. 1981; Methods Enzymol. 76: 57-72 “Preparation of derivatives of ferrous and ferric hemoglobin”). The HPLC analyses were carried out by an Agilent series 1100 instrument. The spectrophotometric analyses were performed by a Jasco V-530 instrument.

human erythrocytes [3] = experiment: Hemolysis measurement (hemoglobin in supernatant, 405 nm); details: costunolide treatment, 24 h, FIG. 2C
Procedure: After 24 hours treatment of erythrocytes (0.6% Hct) with costunolide and/or chelerythrine, hemolysis was determined. 600 μl cell suspension form each condition containing 3.6×10^6 erythrocytes centrifuged for 8 min at 420×g, 4° C., and the supernatants were harvested. As a measure of hemolysis, the hemoglobin (Hb) concentration of the supernatants was determined photometrically at 405 nm. The absorption of the supernatant of DMSO-treated erythrocytes lysed in 600 μl distilled water was defined as 100%. From this the standard curve was made by serial dilution.

[4] = target: T1, glucose-6-phosphate dehydrogenase (G6PDH) (Homo sapiens, UniProt P11413); experiment: Determination of G6PDH activity in erythrocyte lysates; details: costunolide treatment of erythrocytes, 24 h, FIG. 6
T1 construct: endogenous in cells; host or cells: human erythrocytes (RBCs), hemolysate
T1 sequence (P11413 whole entry): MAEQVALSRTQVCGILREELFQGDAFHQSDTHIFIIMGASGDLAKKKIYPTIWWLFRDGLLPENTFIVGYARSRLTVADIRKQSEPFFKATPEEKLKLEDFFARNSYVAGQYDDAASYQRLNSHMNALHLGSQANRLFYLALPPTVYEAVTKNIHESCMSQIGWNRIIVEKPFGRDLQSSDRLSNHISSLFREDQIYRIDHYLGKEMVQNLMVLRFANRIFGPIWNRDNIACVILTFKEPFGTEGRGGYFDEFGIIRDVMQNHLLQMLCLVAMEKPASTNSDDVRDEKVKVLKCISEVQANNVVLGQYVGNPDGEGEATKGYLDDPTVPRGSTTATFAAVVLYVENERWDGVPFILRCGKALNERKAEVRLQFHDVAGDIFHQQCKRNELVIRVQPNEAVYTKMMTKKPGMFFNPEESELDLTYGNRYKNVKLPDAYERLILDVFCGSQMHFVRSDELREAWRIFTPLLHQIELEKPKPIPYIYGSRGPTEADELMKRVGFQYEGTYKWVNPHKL
Procedure: Pure RBCs (0.6% Hct) were incubated in 20 ml Ringer solution and treated with DMSO or different concentrations of costunolide. 24 hrs later, cell suspensions were centrifuged at 10° C., 228×g. Supernatants were removed and the cell pellets were stored at −80° C. until analyses. G6PDH activity was measured in lysates according to methods recommended by the International Committee for Standardization in Hematology (Di lorio E.E. 1981; l.c.). The activity was expressed in units per grams of hemoglobin (U/g Hb) (Ghashghaeinia M. et al. 2012; l.c.). RBC pellet was diluted 1:20 with distilled water. After 10 min (for GR 20 min) incubation at 37° C., the reactions were started by adding substrate or hemolysate and mixed properly. Then, 200 μL of each reaction mixture was transferred into a 96-well plate and changes in absorbance were recorded at 340 nm at 1 min intervals for 20 min at 37° C. (Infinite 200 Nanoquant, Tecan). All assays were run in triplicates and specific enzyme activity was calculated using the Lambert-Beer law. Activity =(ΔA×V/(ϵ×l×t))×f.
0.1 M Tris-HCl/0.5 mM EDTA, pH=8.0; 0.01 M MgCl2; 0.2 mM NADP^+; 20 μL of 1:20 hemolysate; 10 min incubation at 37° C.; start by addition of 0.6 mM 6PGA+0.6 mM G6P

human erythrocytes [5] = experiment: Annexin-V-FLUOS binding (eryptosis) by flow cytometry
Procedure: as §1, §2

SMILES	cell shrinkage (human erythrocytes [1])	GSH (reduced glutathione) level (human erythrocytes [2])	GSSG (oxidized glutathione) level (human erythrocytes [2])	hemolysis (human erythrocytes [3])	G6PDH activity [4]	eryptosis rate (human erythrocytes [5]; single treatment with increasing concentrations of costunolide, 24 h, FIG. 2)	basal eryptosis rate (human erythrocytes [5]; without costunolide, DMSO control 1.69%, FIG. 3A) [%]
C=C1C(=O)O[C@@H]2/C=C(\C)CC/C=C(\C)CC[C@@H]12 [costunolide]	increased rates of eryptosis and cell shrinkage	deplete both the reduced (GSH) and the oxidized (GSSG) form of glutathione in a concentration-dependent manner	deplete both the reduced (GSH) and the oxidized (GSSG) form of glutathione in a concentration-dependent manner	not associated with hemolysis	inhibit G6PDH activity completely	increased rates of eryptosis	–
COc1ccc2c(c[n+](C)c3c4cc5c(cc4ccc23)OCO5)c1OC [chelerythrine, 1,2-Dimethoxy-12-methyl[1,3]benzodioxolo[5,6-c]phenanthridinium]	–	–	–	–	–	–	1.1
